According to patent publication US20230255964A1, “EXTENDED RELEASE DOSAGE FORMS FOR TYK2 INHIBITORS” (Bristol-Myers Squibb Company, priority 2019, published 2023):

Experiments:
pH-dependent solubility = type: physicochemical; settings: pHs > 4
Text: For immediate release formulations, such pH-dependent properties may result in a reduction in bioavailability when dosed with acid reducing agents, such as, e.g., famotidine or omeprazole. […] While using the higher-energy, amorphous free base form of BMS-986165 helps address the above challenges, formulating amorphous BMS-986165 presents other challenges, including ensuring physical stability of the amorphous form during storage, and maintaining supersaturation of the compound during dissolution in the GI tract.

[1] = Chemical stability of BMS-986165:HPMCAS-H SDDs upon storage (related substances); type: physicochemical; settings: API standard, no stability condition printed
Method: Lots of 25% w/w BMS-986165 SDD with HPMCAS-H were assessed for physical and chemical stability. […] Dissolution performance in the microcentrifuge test was unchanged.
There was no evidence of crystallization by PXRD in any SDD after storage for up to 6 months at 40° C./75%RH open (FIG. 1A and FIG. 1B). DSC data indicated slight changes similar to those observed in 25% w/w BMS-986165 SDD after exposure to 50° C./75%RH or 40° C./75%RH but there was no trend with API loading and the results were considered to reflect an “ageing” or “annealing” effect rather than crystal formation. Scanning electron microscopy (SEM) images confirmed the presence of a single phase homogenous dispersion (FIGS. 2A-C, FIGS. 3A-C, FIGS. 4A-C).

Row | SMILES | solubility (pH-dependent solubility) | BMS-986165 (relative ret. time 1.00), related substances [1] | Total imporities >LOQ [1]
1 | [2H]C([2H])([2H])NC(=O)c1nnc(NC(=O)C2CC2)cc1Nc1cccc(-c2ncn(C)n2)c1OC [BMS-986165 crystalline free base, 6-(cyclopropaneamido)-4-((2-methoxy-3-(1-methyl-1H-1,2,4-triazol-3-yl)phenyl)amino)-N-(methyl-d3)pyridazine-3-carboxamide] | low solubility |  | 
2 | [2H]C([2H])([2H])NC(=O)c1nnc(NC(=O)C2CC2)cc1Nc1cccc(-c2ncn(C)n2)c1OC [BMS-986165, 6-(cyclopropaneamido)-4-((2-methoxy-3-(1-methyl-1H-1,2,4-triazol-3-yl)phenyl)amino)-N-(methyl-d3)pyridazine-3-carboxamide] |  | 99.48 | 0.52%
